Source: the supplement of paper PMC8967900

Experiments:
Assay in all cases: selective drug sensitivity score (sDSS, relative to normal bone marrow) (sDSS (score)); higher = more potent and effective on the cell line relative to normal bone marrow cells
Details in all cases: 72 h
ALL-SIL = system: ALL-SIL
CCRF-CEM = system: CCRF-CEM
COG-LL-317 = system: COG-LL-317
COG-LL-355h = system: COG-LL-355h
HAL-01 = system: HAL-01
JURKAT = system: JURKAT
KARPAS-45 = system: KARPAS-45
KOPN-8 = system: KOPN-8
LC4-1 = system: LC4-1
MHH-CALL-3 = system: MHH-CALL-3
MHH-CALL-4 = system: MHH-CALL-4
MOLT-14 = system: MOLT-14
MOLT-16 = system: MOLT-16
NALL-1 = system: NALL-1
P30-OHKUBO = system: P30-OHKUBO
PF-382 = system: PF-382
RCH-ACV = system: RCH-ACV
RPMI-8402 = system: RPMI-8402
SEM cells = system: SEM cells
TANOUE = system: TANOUE
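Further: ALL cell lines in 384-well plates, five doses spanning 10,000-fold, each plate scaled between vehicle and 100 µmol/L benzalkonium chloride controls, sDSS an adapted area-under-curve metric.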

Row | Compound | selective drug sensitivity score (ALL-SIL) | selective drug sensitivity score (CCRF-CEM) | selective drug sensitivity score (COG-LL-317) | selective drug sensitivity score (COG-LL-355h) | selective drug sensitivity score (HAL-01) | selective drug sensitivity score (JURKAT) | selective drug sensitivity score (KARPAS-45) | selective drug sensitivity score (KOPN-8) | selective drug sensitivity score (LC4-1) | selective drug sensitivity score (MHH-CALL-3) | selective drug sensitivity score (MHH-CALL-4) | selective drug sensitivity score (MOLT-14) | selective drug sensitivity score (MOLT-16) | selective drug sensitivity score (NALL-1) | selective drug sensitivity score (P30-OHKUBO) | selective drug sensitivity score (PF-382) | selective drug sensitivity score (RCH-ACV) | selective drug sensitivity score (RPMI-8402) | selective drug sensitivity score (SEM cells) | selective drug sensitivity score (TANOUE)
1 | Cc1nc(-c2cn3c(n2)-c2ccc(-c4cnn(C(C)(C)C(N)=O)c4)cc2OCC3)n(C(C)C)n1 [Taselisib] (top concentration 1000 nM) | 1.2 | 3.9 | 0.8 | 11.9 | 11.1 | -2.6 | 2 | -0.9 | -2.2 | -4.3 | 7.9 | -4.3 | 2.8 | -1.7 | 12.2 | 3 | 22.1 | 1.5 | 5.2 | -4.3
2 | Cn1cncc1[C@@](N)(c1ccc(Cl)cc1)c1ccc2c(c1)c(-c1cccc(Cl)c1)cc(=O)n2C [Tipifarnib] (top concentration 10000 nM) | 11.1 | 10.3 | 15.3 | 4.5 | 6.3 | 3.6 | 25.4 | 11.2 | 1.6 | 7 | 6.6 | 11.9 | 11.8 | 1.4 | 3.5 | 13 | 6.9 | 20.9 | 18.6 | -7.5
3 | CN(C)CCOc1ccc(/C(=C(/CCCl)c2ccccc2)c2ccccc2)cc1 [Toremifene] (top concentration 10000 nM) | 1.28 | -0.02 | -0.22 | 2.28 | 3.18 | -0.42 | 0.38 | 0.98 | 1.08 | -2.52 | 0.48 | 2.48 | 3.38 | 8.98 | 0.58 | 1.08 | 6.88 | 0.58 | 0.48 | -2.62
4 | CC(=O)Nc1cccc(-n2c(=O)n(C3CC3)c(=O)c3c(Nc4ccc(I)cc4F)n(C)c(=O)c(C)c32)c1 [Trametinib] (top concentration 250 nM) | -8.04 | -1.84 | -7.74 | 5.06 | 2.36 | -7.94 | -7.14 | 4.36 | 2.46 | 9.46 | 0.06 | 6.96 | -1.94 | -4.84 | -8.04 | -5.44 | -8.04 | -8.04 | -8.04 | -7.74
5 | O=C(CCCCCCC(=O)Nc1ccc([C@H]2O[C@@H](CSc3nc(-c4ccccc4)c(-c4ccccc4)o3)C[C@@H](c3ccc(CO)cc3)O2)cc1)NO [Tubacin] (top concentration 10000 nM) | 9.84 | 8.74 | 10.3 | 7.14 | 2.14 | 4.14 | 5.04 | 16.9 | 7.14 | 17.8 | 7.84 | 8.34 | 9.14 | 7.54 | 7.44 | 8.14 | 11.2 | 7.64 | 9.44 | 2.74
6 | CN1CCc2c(c3ccccc3n2Cc2ccc(C(=O)NO)cc2)C1 [Tubastatin_A] (top concentration 10000 nM) | 3.36 | 2.06 | 1.96 | 3.16 | 1.76 | 0.36 | 4.46 | 9.86 | 6.76 | 18 | -0.14 | 1.06 | 2.86 | 8.76 | 6.96 | 0.76 | 8.16 | 1.86 | 4.76 | -0.14
7 | C[C@]1(c2nc3c(C(N)=O)cccc3[nH]2)CCCN1 [Veliparib] (top concentration 10000 nM) | -4.18 | -4.18 | 1.72 | 2.82 | 1.02 | -3.28 | -4.18 | 5.52 | -4.18 | 0.42 | 6.72 | 0.22 | 0.32 | -4.18 | 4.42 | -4.08 | -2.58 | -3.88 | -4.18 | -4.18
8 | CS(=O)(=O)c1ccc(C(=O)Nc2ccc(Cl)c(-c3ccccn3)c2)c(Cl)c1 [Vismodegib] (top concentration 10000 nM) | 0.36 | -1.14 | -1.14 | 2.26 | -1.14 | -1.14 | -1.14 | 6.76 | 5.26 | -1.14 | 0.16 | -1.14 | -1.14 | 1.06 | 0.36 | -1.14 | 3.46 | -1.14 | 2.06 | -1.14
